Consider ten compounds from ChEMBL document CHEMBL1201862, “PubChem BioAssay data set” (2004).

Test systems include NCI-H23; HT-29; UACC-257; DU-145; NCI-H226; NCI/ADR-RES; NCI-H460; A549; M14; K562; IGROV-1; MCF7; NCI-H522; SK-MEL-2; CAKI-1; Malme-3M; Hs-578T; UO-31; BT-549.
Holding throughout (test): DTP human tumour cell line panel, 48 h

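Results reflect a 48-hour exposure of cells in 96-well plates to compound at five concentrations. GI50 marks 50% less growth.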 Calls of active or inactive are those of the source. No stated cut-off is given here; in the data, active = GI50 up to about 1.1 µM and inactive = higher.

In the case of `CN(C)C(=O)CO/N=C1/C(=C2/C(=O)Nc3ccccc32)Nc2ccccc21`, the GI50 in the assay on NCI-H23, in the assay with HT-29, in the assay on UACC-257, in the assay on DU-145, with NCI-H226 and in the assay on NCI/ADR-RES was > 100 µM (inactive) in each case. The GI50 in the assay on NCI-H460 was > 100 µM (inactive); in the assay on A549, > 100 µM (inactive); with M14, 97.3 µM (inactive); with K562, > 100 µM (inactive); in the assay on IGROV-1 it was > 100 µM (inactive); with MCF7, > 100 µM (inactive). The GI50 with NCI-H522 is > 100 µM (inactive); with SK-MEL-2 it was > 100 µM (inactive); with CAKI-1, 4.69 µM (inactive); in the assay on Malme-3M, > 100 µM (inactive); with Hs-578T, > 100 µM (inactive); in the assay on UO-31, > 100 µM (inactive). For the same compound, in the assay with BT-549, the GI50 is 65.9 µM (inactive).

For `CCN(CC)C(=S)SS(=O)(=O)c1ccccc1C(=O)O`, the GI50 in the assay with NCI-H23 was > 100 µM (inactive); in the assay with HT-29, > 100 µM (inactive); in the assay on UACC-257, > 100 µM (inactive); in the assay with DU-145, > 100 µM (inactive); in the assay with NCI-H226 it was > 46.7 µM (inactive); in the assay on NCI/ADR-RES it was > 100 µM (inactive). For the same compound, the GI50 in the assay on NCI-H460 is > 20 µM (inactive); in the assay on A549 it was 10.8 µM (inactive); in the assay on M14, > 96.4 µM (inactive); with K562, > 100 µM (inactive); in the assay with IGROV-1, > 100 µM (inactive); with MCF7, 1.03 µM (active). In addition, the GI50 is 2.67 µM (inactive) in the assay with NCI-H522; > 100 µM (inactive) in the assay with SK-MEL-2; > 78 µM (inactive) with CAKI-1; > 96.4 µM (inactive) in the assay on Malme-3M; > 100 µM (inactive) with Hs-578T; > 94 µM (inactive) in the assay with UO-31. In addition, the GI50 with BT-549 is > 100 µM (inactive).

Consider `C=C(C)[C@@H]1CCc2c(c(C)cc(O)c(=O)c2O)C1`, for which the GI50 in the assay with NCI-H23 was 2.58 µM (inactive); in the assay with HT-29, 3.01 µM (inactive); in the assay on UACC-257 it was 6.81 µM (inactive); with DU-145 it was 2.18 µM (inactive); in the assay on NCI-H226, 2.72 µM (inactive); in the assay with NCI/ADR-RES, 0.583 µM (active). The GI50 with NCI-H460 was 0.102 µM (active); in the assay with A549, 1.17 µM (inactive); in the assay on M14, 1.47 µM (inactive); in the assay on K562, 0.881 µM (active); in the assay with IGROV-1 it was 0.179 µM (active); in the assay with MCF7 it was 1.48 µM (inactive). Moreover, the GI50 is 0.247 µM (active) in the assay with NCI-H522; 4.79 µM (inactive) in the assay on SK-MEL-2; 0.13 µM (active) with CAKI-1; 3.43 µM (inactive) with Malme-3M; 2.16 µM (inactive) in the assay with Hs-578T; 0.92 µM (active) in the assay with UO-31. The GI50 in the assay on BT-549 is 8.95 µM (inactive).

For `COC(=O)C1CN=CN1CCc1ccccc1` (stereo not given), the GI50 in the assay on NCI-H23, with HT-29, in the assay on UACC-257, in the assay on DU-145, in the assay on NCI-H226 and in the assay with NCI/ADR-RES was > 100 µM (inactive) throughout. Further, the GI50 in the assay on NCI-H460, in the assay with A549, in the assay on M14, in the assay with K562, with IGROV-1 and with MCF7 was > 100 µM (inactive) in each case. Besides, the GI50 in the assay with NCI-H522, in the assay on SK-MEL-2, with CAKI-1, in the assay on Malme-3M, in the assay with Hs-578T and in the assay on UO-31 was > 100 µM (inactive) throughout. For the same compound, in the assay on BT-549, the GI50 is > 100 µM (inactive).

For the compound `N#Cc1c(N)c2c(c(-c3ccccc3)c1-c1ccccc1)C(=O)N(N)C2=O`, the GI50 with NCI-H23 is > 100 µM (inactive); in the assay with HT-29, > 100 µM (inactive); in the assay with UACC-257, > 100 µM (inactive); in the assay with DU-145, > 100 µM (inactive); in the assay with NCI-H226 it was > 100 µM (inactive); with NCI/ADR-RES, 56 µM (inactive). The GI50 in the assay with NCI-H460 was > 100 µM (inactive); with A549, 94 µM (inactive); in the assay with M14, > 100 µM (inactive); in the assay on K562 it was > 100 µM (inactive); with IGROV-1, 60 µM (inactive); with MCF7 it was > 100 µM (inactive). Further, the GI50 in the assay on NCI-H522 was 38.6 µM (inactive); with SK-MEL-2, > 100 µM (inactive); in the assay with CAKI-1, 25.2 µM (inactive); in the assay on Malme-3M, > 100 µM (inactive); in the assay on Hs-578T, 60.1 µM (inactive); in the assay on UO-31, 40.3 µM (inactive). In the assay with BT-549, the GI50 is > 100 µM (inactive).

Consider `Cc1cc(NS(=O)(=O)c2ccc(NC(=O)c3ccc4nc5ccccc5c(Nc5ccc(S(=O)(=O)N=C(N)N)cc5)c4c3)cc2)no1`, for which the GI50 was 18.8 µM (inactive) in the assay with NCI-H23; 21.4 µM (inactive) in the assay on HT-29; 26.2 µM (inactive) in the assay on UACC-257; 17.1 µM (inactive) in the assay on DU-145; 14.2 µM (inactive) in the assay with NCI-H226; 25.2 µM (inactive) in the assay on NCI/ADR-RES. Further, the GI50 was 17.4 µM (inactive) in the assay on NCI-H460; 16.9 µM (inactive) in the assay on A549; 15.1 µM (inactive) in the assay with M14; 10.6 µM (inactive) with K562; 16.2 µM (inactive) with IGROV-1; 19.8 µM (inactive) in the assay with MCF7. For the same compound, the GI50 in the assay on NCI-H522 is 17.1 µM (inactive); in the assay with SK-MEL-2 it was 16.5 µM (inactive); with CAKI-1 it was 18.9 µM (inactive); in the assay with Malme-3M, 15.6 µM (inactive); in the assay on Hs-578T, 20 µM (inactive); in the assay on UO-31 it was 17.2 µM (inactive). For the same compound, the GI50 with BT-549 is 20.6 µM (inactive).

On to `COc1ccc2nc3cc(Cl)ccc3c(NCCCN(C)CCCNc3ccc4ncn5c6ccccc6c(=O)c3c45)c2c1`, for which the GI50 with NCI-H23 was 1.18 µM (inactive); in the assay with HT-29 it was 0.0025 µM (active); with UACC-257 it was 0.973 µM (active); in the assay on DU-145 it was 0.587 µM (active); in the assay with NCI-H226, 0.395 µM (active); in the assay on NCI/ADR-RES, 1.26 µM (inactive). Besides, the concentration for 50% growth inhibition (GI50) in the assay on NCI-H460 is 0.0157 µM (active); in the assay with A549, 0.0321 µM (active); in the assay with M14, 0.558 µM (active); with K562, 0.00383 µM (active); in the assay with IGROV-1, 0.0374 µM (active); in the assay with MCF7, 0.0525 µM (active). The GI50 in the assay with NCI-H522 was 0.0264 µM (active); with SK-MEL-2, 3.3 µM (inactive); in the assay on CAKI-1, 0.184 µM (active); in the assay with Malme-3M, 2.69 µM (inactive); in the assay on Hs-578T, 3.99 µM (inactive); in the assay with UO-31, 0.488 µM (active). In addition, in the assay on BT-549, the GI50 was 0.0822 µM (active).

As to `O=C(O)c1cc(-c2ccc3cc(O)c(O)cc3c2)ccc1O`, the GI50 in the assay on NCI-H23, in the assay on HT-29, with UACC-257, in the assay with DU-145, in the assay with NCI-H226 and in the assay on NCI/ADR-RES was > 12.5 µM (inactive) in each case. Besides, the GI50 in the assay with NCI-H460, in the assay with A549, in the assay with M14, with K562, in the assay on IGROV-1 and in the assay on MCF7 was > 12.5 µM (inactive) each time. Moreover, the GI50 in the assay on NCI-H522, in the assay with SK-MEL-2, with CAKI-1, with Malme-3M, in the assay with Hs-578T and in the assay with UO-31 was > 12.5 µM (inactive) throughout. Moreover, the GI50 with BT-549 is > 12.5 µM (inactive).

For `CCCCCCCCCCCCP(=O)(O)OCC(N)C(=O)O` (stereo not given), the GI50 in the assay on NCI-H23 is 48.9 µM (inactive); in the assay with HT-29 it was 33.7 µM (inactive); with UACC-257, > 100 µM (inactive); with DU-145, 40.4 µM (inactive); with NCI-H226 it was 40.7 µM (inactive); with NCI/ADR-RES, 31.4 µM (inactive). Besides, the GI50 was 23.7 µM (inactive) with NCI-H460; 24.8 µM (inactive) in the assay with A549; 48.8 µM (inactive) with M14; 39.4 µM (inactive) with K562; 30.1 µM (inactive) in the assay with IGROV-1; 42.1 µM (inactive) in the assay with MCF7. Besides, the GI50 in the assay on NCI-H522 was 5.22 µM (inactive); in the assay with SK-MEL-2 it was 27.9 µM (inactive); in the assay with CAKI-1, 49.9 µM (inactive); with Malme-3M it was > 100 µM (inactive); in the assay on Hs-578T, 20.2 µM (inactive); in the assay on UO-31 it was 12.3 µM (inactive). Further, the GI50 in the assay on BT-549 is 29.6 µM (inactive).

As for `CCNc1ncnc2sc(SCc3ccccc3)nc12`, the GI50 in the assay on NCI-H23 was 83.8 µM (inactive); in the assay on HT-29, 58.1 µM (inactive); in the assay with UACC-257 it was 79.1 µM (inactive); in the assay on DU-145 it was 75.7 µM (inactive); with NCI-H226, > 100 µM (inactive); with NCI/ADR-RES it was 34.8 µM (inactive). For the same compound, the GI50 in the assay with NCI-H460 is 46.2 µM (inactive); with A549, 36.5 µM (inactive); with M14, > 100 µM (inactive); in the assay with K562, 81.7 µM (inactive); with IGROV-1, > 100 µM (inactive); in the assay on MCF7, 79.6 µM (inactive). The GI50 was 62.2 µM (inactive) in the assay on NCI-H522; > 100 µM (inactive) in the assay with SK-MEL-2; 71.6 µM (inactive) in the assay with CAKI-1; > 100 µM (inactive) in the assay on Malme-3M; > 100 µM (inactive) in the assay on Hs-578T; 36.8 µM (inactive) with UO-31. In the assay on BT-549, the GI50 is > 100 µM (inactive).
